According to patent US20240368194A1, “IRAK4 DEGRADATION AGENT, AND PREPARATION METHOD THEREFOR AND USE THEREOF” (SHANGHAI LEADINGTAC PHARMACEUTICAL CO. LTD., priority 2021, published 2024):

Target: IRAK4 protein in THP-1 cells (Homo sapiens (Human), UniProt Q9NWZ3)
Assay: Degradation of IRAK4 in THP-1 cells, human IRAK4 AlphaLISA assay
Type: cell-based
Details: 24 h incubation
Description: THP-1 cells (Stem Cell Bank, Chinese Academy of Sciences) were inoculated onto a 24-well cell culture plate at 0.95 mL/well, with a cell density of 5×10^5 cells/well. The cell plate was incubated overnight in a 37° C., 5% carbon dioxide incubator, and 50 μL of a solution of a compound in dimethyl sulfoxide was added, such that the final concentration of the compound fell within the range of 0.03-3000 nM. After another 24 h of incubation, cells were collected into 1.5 mL centrifuge tubes and centrifuged at 1000 rpm at 4° C. for 5 min. The cell pellets were washed twice with 1×DPBS. The resuspended cells were lysed with 200 μL of lysis buffer (Western and IP cell lysis buffer (Beyotime), supplemented with 1 mM phenylmethylsulfonyl fluoride and protease inhibitor cocktail (Beyotime)), left to stand on ice for 30 mini, and then centrifuged at 14,000 g at 4° C. for 10 min. The supernatant samples were assayed by Western Blot for IRAK4 protein levels.
The above cell lysates were also tested for IRAK4 degradation using a human IRAK4 AlphaLISA assay kit (PerkinElmer, AL3117C). The method is specifically as follows: 2-μL test samples of cell lysate supernatant were transferred to a white 384-well plate (PerkinElmer, 6007299), and 4 μL of 5× anti-IRAK4 receptor beads (PerkinElmer, final concentration of 10 μg/mL) was then added. The plate was incubated at 23° C. for 30 min. Then 4 μL of 5× biotin-labeled anti-IRAK4 antibody (PerkinElmer, final concentration of 1 nM) was added, and the plate was incubated at 23° C. for 60 min. Finally, 10 μL of 2′ streptavidin-labeled donor beads (final concentration of 40 μg/mL) was added to each well, and the plate was incubated in the dark at 23° C. for 30 min. After the incubation was complete, AlphaLISA signal values were measured on a microplate reader EnVision (PerkinElmer, 2105) in the AlphaScreen standard mode, and IRAK4 concentrations were calculated from these signal values. Then a non-linear curve fitting of logarithmic concentration-inhibition rate was performed using GraphPad Prism 7, and the DC50 and Dmax values of the compound were obtained.

Sequence of IRAK4 protein in THP-1 cells (Q9NWZ3 whole entry): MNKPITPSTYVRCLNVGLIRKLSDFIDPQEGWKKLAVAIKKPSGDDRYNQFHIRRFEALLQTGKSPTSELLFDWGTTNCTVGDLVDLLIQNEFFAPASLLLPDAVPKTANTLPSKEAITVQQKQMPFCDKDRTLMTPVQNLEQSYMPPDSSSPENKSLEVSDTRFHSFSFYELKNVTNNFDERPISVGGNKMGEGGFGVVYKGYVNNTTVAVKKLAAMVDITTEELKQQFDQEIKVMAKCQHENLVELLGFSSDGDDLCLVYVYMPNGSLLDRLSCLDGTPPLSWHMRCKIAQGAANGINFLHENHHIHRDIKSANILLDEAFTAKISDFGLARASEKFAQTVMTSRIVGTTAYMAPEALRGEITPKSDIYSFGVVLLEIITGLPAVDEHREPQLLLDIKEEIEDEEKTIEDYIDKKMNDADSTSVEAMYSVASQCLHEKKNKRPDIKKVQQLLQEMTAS

SMILES | DC50 [nM] | Dmax [%]
COc1cc2nn([C@H]3CC[C@](O)(COCC4CCN(C(=O)c5ccc(Cl)c(N6CCC(=O)NC6=O)c5)CC4)CC3)cc2cc1NC(=O)c1cccc(C(F)(F)F)n1 [Example 8, N-(2-((1S,4S)-4-(((1-(4-chloro-3-(2,4-dioxotetrahydropyrimidin-1(2H)-yl)benzoyl)piperidin-4-yl)methoxy)methyl)-4-hydroxycyclohexyl)-6-methoxy-2H-indol-5-yl)-6-(trifluoromethyl)pyridinecarboxamide] | 8.8 | 86.8
COc1ccc(C(=O)N2CCC3(CCC(N(C)C[C@H]4CC[C@H](n5cc(NC(=O)c6cnn7ccc(N8CCOCC8)nc67)c(C(F)F)n5)CC4)CC3)CC2)cc1N1CCC(=O)NC1=O [Example 59, N-(3-(difluoromethyl)-1-((1R,4R)-4-(((3-(3-(2,4-dioxotetrahydropyrimidin-1(2H)-yl)-4-methoxybenzoyl)-3-azaspiro[5.5]undecan-9-yl)(methyl)amino)methyl)cyclohexyl)-1H-pyrazol-4-yl)-5-morpholinopyrazolo[1,5-a]pyrimidine-3-carboxamide] | 7.92 | 70.8
CN(CCC1CCN(C(=O)c2ccc(Cl)c(N3CCC(=O)NC3=O)c2)CC1)C[C@H]1CC[C@H](n2cc(NC(=O)c3cnn4ccc(N5CC6CCC(C5)O6)nc34)c(C(F)F)n2)CC1 [Example 31, 5-(8-oxa-3-azabicyclo[3.2.1]octan-3-yl)-N-(1-((1R,4R)-4-(((2-(1-(4-chloro-3-(2,4-dioxotetrahydropyrimidin-1(2H)-yl)benzoyl)piperidin-4-yl)ethyl)(methyl)amino)methyl)cyclohexyl)-3-(difluoromethyl)-1H-pyrazol-4-yl)pyrazolo[1,5-a]pyrimidine-3-carboxamide] | 6.1 | 91.1
COc1cc2nn([C@H]3CC[C@](O)(CN(C)CC4CCC5(CC4)CCN(C(=O)c4ccc(Cl)c(N6CCC(=O)NC6=O)c4)CC5)CC3)cc2cc1NC(=O)c1cccc(C(F)(F)F)n1 [Example 17] | 10.4 | 99.4
CN(CCC1CCN(C(=O)c2ccc(Cl)c(N3CCC(=O)NC3=O)c2)CC1)C[C@H]1CC[C@H](n2cc(NC(=O)c3cnn4ccc(N5C[C@H]6C[C@@H]5CO6)nc34)c(C(F)F)n2)CC1 [Example 11, 5-((1R,4R)-2-oxa-5-azabicyclo[2.2.1]heptan-5-yl)-N-(1-((1R,4R)-4-(((2-(1-(4-chloro-3-(2,4-dioxotetrahydropyrimidin-1(2H)-yl)benzoyl)piperidin-4-yl)ethyl)(methyl)amino)methyl)cyclohexyl)-3-(difluoromethyl)-1H-pyrazol-4-yl)pyrazolo[1,5-a]pyrinidine-3-carboxamide] | 12.7 | 90.7
Cc1nn([C@H]2CC[C@H](CN3CCC4(CC3)CCN(C(=O)c3ccc(Cl)c(N5CCC(=O)NC5=O)c3)CC4)CC2)cc1NC(=O)c1cnn2ccc(N3C[C@H]4C[C@@H]3CO4)nc12 [Example 7, 5-((1R,4R)-2-oxa-5-azabicyclo[2.2.1]heptan-5-yl)-N-(1-((1R,4R)-4-((9-(4-chloro-3-(2,4-dioxotetrahydropyrimidin-1(2H)-yl)benzoyl)-3,9-diazaspiro[5.5]undecan-3-yl)methyl)cyclohexyl)-3-methyl-1H-pyrazol-4-yl)pyrazolo[1,5-a]pyrimidine-3-carboxamide] | 148 | 76.4
CN(CCC1CCN(C(=O)c2ccc(F)c(C3CCC(=O)NC3=O)c2)CC1)C(=O)[C@H]1CC[C@H](n2cc(NC(=O)c3cnn4ccc(N5CCOCC5)nc34)c(C(F)F)n2)CC1 (stereo partly drawn) [Example 54, N-(3-(difluoromethyl)-1-((1R,4R)-4-((2-(1-(3-(2,6-dioxopyridin-3-yl)-4-fluorobenzoyl)piperidin-4-yl)ethyl)(methyl)carbamoyl)cyclohexyl)-1H-pyrazol-4-yl)-5-morpholinopyrazolo[1,5-a]pyrimidine-3-carboxamide] | 8.13 | 88.2

The next compounds have a lower DC50 than those just listed; values first:

DC50 [nM] | Dmax [%] | SMILES
5.55 | 94.4 | O=C1CCN(c2cc(C(=O)N3CCC4(CCN(C[C@H]5CC[C@H](n6cc(NC(=O)c7cnn8ccc(N9CC%10(COC%10)C9)nc78)c(C(F)F)n6)CC5)CC4)CC3)ccc2Cl)C(=O)N1 [Example 48, N-(1-((1R,4R)-4-((9-(4-chloro-3-(2,4-dioxotetrahydropyrimidin-1(2H)-yl)benzoyl)-3,9-diazaspiro[5.5]undecan-3-yl)methyl)cyclohexyl)-3-(difluoromethyl)-1H-pyrazol-4-yl)-5-(2-oxa-6-azaspiro[3.3]heptan-6-yl)pyrazolo[1,5-a]pyrimidine-3-carboxamide]
5.23 | 90.1 | CN(CCC1CCN(C(=O)c2ccc(Cl)c(N3CCC(=O)NC3=O)c2)CC1)C[C@H]1CC[C@H](n2cc(NC(=O)c3cnn4ccc(N5CCOCC5)nc34)c(C(F)F)n2)CC1 [Example 30, N-(1-((1R,4R)-4-(((2-(1-(4-chloro-3-(2,4-dioxotetrahydropyrimidin-1(2H)-yl)benzoyl)piperidin-4-yl)ethyl)(methyl)amino)methyl)cyclohexyl)-3-(difluoromethyl)-1H-pyrazol-4-yl)-5-morpholinopyrazolo[1,5-a]pyrimidine-3-carboxamide]
4.84 | 99 | CN(CCC1CCN(C(=O)c2ccc(Cl)c(N3CCC(=O)NC3=O)c2)CC1)C[C@H]1CC[C@H](n2cc(NC(=O)c3cnn4ccc(N5CCC[C@H](N)C5)nc34)c(C(F)F)n2)CC1 [Example 47, 5-((S)-3-aminopiperidin-1-yl)-N-(1-((1R,4S)-4-(((2-(1-(4-chloro-3-(2,4-dioxotetrahydropyrimidin-1(2H)-yl)benzoyl)piperidin-4-yl)ethyl)(methyl)amino)methyl)cyclohexyl)-3-(difluoromethyl)-1H-pyrazol-4-yl)pyrazolo[1,5-a]pyrimidine-3-carboxamide]
3.46 | 90.5 | O=C1CCN(c2cc(C(=O)N3CCC4(CCN(C[C@H]5CC[C@H](n6cc(NC(=O)c7cnn8ccc(N9CC%10CCC(C9)O%10)nc78)c(C(F)F)n6)CC5)CC4)CC3)ccc2Cl)C(=O)N1 [Example 32, 5-(8-oxa-3-azabicyclo[3.2.1]octan-3-yl)-N-(1-((1R,4R)-4-((9-(4-chloro-3-(2,4-dioxotetrahydropyrimidin-1(2H)-yl)benzoyl)-3,9-diazaspiro[5.5]undecan-3-yl)methyl)cyclohexyl)-3-(difluoromethyl)-1H-pyrazol-4-yl)pyrazolo[1,5-a]pyrimidine-3-carboxamide]
3.42 | 96.5 | COc1cc2nn([C@H]3CC[C@@](COCCC4CCN(C(=O)c5ccc(Cl)c(N6CCC(=O)NC6=O)c5)CC4)(OC)CC3)cc2cc1NC(=O)c1cccc(C(F)(F)F)n1 [Example 22, N-(2-((1S,4S)-4-((2-(1-(4-chloro-3-(2,4-dioxotetrahydropyrimidin-1(2H)-yl)benzoyl)piperidin-4-yl)ethoxy)methyl)-4-methoxycyclohexyl)-6-methoxy-2H-indazol-5-yl)-6-(trifluoromethyl)pyridinecarboxamide]
2.75 | 98.5 | O=C1CCN(c2cc(C(=O)N3CCC4(CCN(C[C@H]5CC[C@H](n6cc(NC(=O)c7cnn8ccc(N9CCOCC9)nc78)c(C(F)F)n6)CC5)CC4)CC3)ccc2Cl)C(=O)N1 [Example 29, N-(1-((1R,4R)-4-((9-(4-chloro-3-(2,4-dioxotetrahydropyrimidin-1(2H)-yl)benzoyl)-3,9-diazaspiro[5.5]undecan-3-yl)methyl)cyclohexyl)-3-(difluoromethyl)-1H-pyrazol-4-yl)-5-morpholinopyrazolo[1,5-a]pyrimidine-3-carboxamide]
0.82 | 96.2 | Cc1ccc(C(=O)N2CCC3(CCN(C[C@H]4CC[C@H](n5cc(NC(=O)c6cnn7ccc(N8CCC[C@H](O)C8)nc67)c(C(F)F)n5)CC4)CC3)CC2)cc1N1CCC(=O)NC1=O [Example 45, N-(3-(difluoromethyl)-1-((1R,4S)-4-((9-(3-(2,4-dioxotetrahydropyrimidin-1(2H)-yl)-4-methylbenzoyl)-3,9-diazaspiro[5.5]undecan-3-yl)methyl)cyclohexyl)-1H-pyrazol-4-yl)-5-((S)-3-hydroxypiperidin-1-yl)pyrazolo[1,5-a]pyrimidine-3-carboxamide]
0.78 | 100 | COc1ccc(C(=O)N2CCC(CCN(C)C[C@H]3CC[C@H](n4cc(NC(=O)c5cnn6ccc(N7CCC[C@H](O)C7)nc56)c(C(F)F)n4)CC3)CC2)cc1N1CCC(=O)NC1=O [Example 35, N-(3-(difluoromethyl)-1-((1R,4S)-4-(((2-(1-(3-(2,4-dioxotetrahydropyrimidin-1(2H)-yl)-4-methoxybenzoyl)piperidin-4-yl)ethyl)(methyl)amino)methyl)cyclohexyl)-1H-pyrazol-4-yl)-5-((S)-3-hydroxypiperidin-1-yl)pyrazolo[1,5-a]pyrimidine-3-carboxamide]
